Earlier results, collected in US12295926B1, “Modified release gamma-hydroxybutyrate formulations having improved pharmacokinetics” (Flamel Ireland Limited, priority 2022, dated 2025).
Where two headings read alike, the source gives them in different places.

Columns and labels:
mouse = settings: 2-year
rat [1] = settings: 2-year
rat [2] = settings: in vivo
CYP2C9 = CYP2C9 (Homo sapiens, UniProt P11712); settings: up to 3 mM (378 mcg/mL)
CYP2C19 = CYP2C19 (Homo sapiens, UniProt P33261); settings: up to 3 mM (378 mcg/mL)
Sequence of CYP2C19 (P33261 whole entry): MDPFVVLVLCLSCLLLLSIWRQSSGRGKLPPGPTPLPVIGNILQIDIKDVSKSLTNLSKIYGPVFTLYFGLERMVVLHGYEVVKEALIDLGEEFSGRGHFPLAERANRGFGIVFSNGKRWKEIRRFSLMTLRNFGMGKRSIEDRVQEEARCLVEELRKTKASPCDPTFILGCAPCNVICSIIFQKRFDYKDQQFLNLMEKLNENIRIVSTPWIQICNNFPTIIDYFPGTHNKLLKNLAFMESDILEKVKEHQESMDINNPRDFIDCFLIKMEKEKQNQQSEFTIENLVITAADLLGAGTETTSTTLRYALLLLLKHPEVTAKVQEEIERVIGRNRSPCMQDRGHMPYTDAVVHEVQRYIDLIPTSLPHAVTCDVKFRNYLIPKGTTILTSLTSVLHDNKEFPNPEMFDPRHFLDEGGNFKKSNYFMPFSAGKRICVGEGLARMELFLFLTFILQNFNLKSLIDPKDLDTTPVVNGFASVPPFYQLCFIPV

rats [3] = test system: rats
[4] = 6 g per day with ibuprofen 800 mg four times per day
male and female rats = settings: 150, 350, or 1,000 mg/kg/day
plasma proteins = settings: 3 mcg/mL to 300 mcg/mL
[5] = 4.5 g oral
rats [6] = settings: highest dose tested (1,000 mg/kg/day)
rats [7] = settings: 0, 100, 300, or 900 mg/kg/day
CYP2E1 = CYP2E1 (Homo sapiens, UniProt P05181); settings: up to 3 mM (378 mcg/mL)
Sequence of CYP2E1 (P05181 whole entry): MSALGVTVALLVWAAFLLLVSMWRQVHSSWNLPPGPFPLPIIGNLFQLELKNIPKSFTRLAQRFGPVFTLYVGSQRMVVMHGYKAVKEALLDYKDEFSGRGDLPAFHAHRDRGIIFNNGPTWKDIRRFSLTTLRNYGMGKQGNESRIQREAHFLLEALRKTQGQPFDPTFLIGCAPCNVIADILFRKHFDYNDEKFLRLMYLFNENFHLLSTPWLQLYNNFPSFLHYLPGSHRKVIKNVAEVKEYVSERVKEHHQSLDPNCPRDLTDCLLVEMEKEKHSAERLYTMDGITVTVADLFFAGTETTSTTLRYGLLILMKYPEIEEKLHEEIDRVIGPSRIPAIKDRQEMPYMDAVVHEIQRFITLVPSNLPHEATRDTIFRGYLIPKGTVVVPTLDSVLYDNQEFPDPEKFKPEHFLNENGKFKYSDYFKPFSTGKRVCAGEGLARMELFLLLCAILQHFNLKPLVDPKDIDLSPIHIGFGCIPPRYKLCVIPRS

pregnant rats = settings: 150, 350, or 1,000 mg/kg/day
pregnant rabbits = settings: 300, 600, or 1,200 mg/kg/day
CYP1A2 = target: T1, CYP1A2 (Homo sapiens, UniProt P05177); settings: up to 3 mM (378 mcg/mL)
T1 sequence (P05177 1-516): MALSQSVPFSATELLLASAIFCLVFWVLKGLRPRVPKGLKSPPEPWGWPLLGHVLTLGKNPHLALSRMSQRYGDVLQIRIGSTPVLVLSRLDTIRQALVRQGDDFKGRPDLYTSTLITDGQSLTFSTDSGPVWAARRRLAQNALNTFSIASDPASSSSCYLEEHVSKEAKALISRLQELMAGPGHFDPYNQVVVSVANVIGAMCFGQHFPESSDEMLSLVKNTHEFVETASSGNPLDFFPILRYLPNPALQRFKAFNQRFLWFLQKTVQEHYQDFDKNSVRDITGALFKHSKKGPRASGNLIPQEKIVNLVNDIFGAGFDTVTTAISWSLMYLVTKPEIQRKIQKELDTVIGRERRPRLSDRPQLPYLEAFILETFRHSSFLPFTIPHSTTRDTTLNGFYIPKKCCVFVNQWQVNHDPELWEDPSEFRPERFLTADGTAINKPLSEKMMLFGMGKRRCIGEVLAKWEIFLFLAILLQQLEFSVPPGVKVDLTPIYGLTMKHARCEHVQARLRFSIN

CYP2D6 = CYP2D6 (Homo sapiens, UniProt P10635); settings: up to 3 mM (378 mcg/mL)
Sequence of CYP2D6 (P10635 whole entry): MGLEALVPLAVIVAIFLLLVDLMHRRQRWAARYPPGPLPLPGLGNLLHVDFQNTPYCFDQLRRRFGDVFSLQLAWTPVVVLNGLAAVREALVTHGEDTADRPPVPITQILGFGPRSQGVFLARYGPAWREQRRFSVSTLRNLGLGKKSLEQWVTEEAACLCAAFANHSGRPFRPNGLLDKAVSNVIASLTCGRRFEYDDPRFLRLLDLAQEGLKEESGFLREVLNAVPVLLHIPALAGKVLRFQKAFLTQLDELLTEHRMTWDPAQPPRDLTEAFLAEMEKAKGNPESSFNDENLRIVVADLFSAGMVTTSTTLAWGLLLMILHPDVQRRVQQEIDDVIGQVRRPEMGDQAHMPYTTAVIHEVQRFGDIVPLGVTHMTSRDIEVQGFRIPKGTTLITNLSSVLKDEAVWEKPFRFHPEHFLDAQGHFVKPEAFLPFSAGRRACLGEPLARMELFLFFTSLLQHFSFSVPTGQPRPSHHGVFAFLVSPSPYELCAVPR

CYP3A = settings: up to 3 mM (378 mcg/mL)
[8] = not given; remark: listed apart in the source
[9] = 6 g per day with diclofenac 50 mg twice per day

Sequence of CYP2C9 (P11712 whole entry): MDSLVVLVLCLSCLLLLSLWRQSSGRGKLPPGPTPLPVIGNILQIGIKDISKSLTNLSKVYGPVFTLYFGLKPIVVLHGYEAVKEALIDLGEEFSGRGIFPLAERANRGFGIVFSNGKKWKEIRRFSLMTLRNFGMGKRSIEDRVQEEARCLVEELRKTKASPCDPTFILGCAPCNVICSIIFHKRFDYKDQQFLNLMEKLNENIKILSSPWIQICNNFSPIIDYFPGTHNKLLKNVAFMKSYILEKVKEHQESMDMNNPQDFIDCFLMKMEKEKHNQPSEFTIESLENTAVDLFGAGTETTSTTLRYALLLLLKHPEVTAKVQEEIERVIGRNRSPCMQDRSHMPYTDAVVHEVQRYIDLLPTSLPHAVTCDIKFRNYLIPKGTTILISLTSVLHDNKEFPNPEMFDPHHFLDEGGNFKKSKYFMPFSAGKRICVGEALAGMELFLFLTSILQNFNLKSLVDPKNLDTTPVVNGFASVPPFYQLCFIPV

**Q.** For `O=C1CCCO1` [gamma-butyrolactone], which Carcinogenic activity (mouse) is on record?
**A.** no clear evidence of carcinogenic activity

**Q.** What about the Carcinogenic activity (rat [1]) of the same compound?
**A.** no clear evidence of carcinogenic activity

**Q.** What does the source list for `O=C([O-])CCCO.[Na+]` [sodium oxybate, sodium 4-hydroxybutanoate]?
**A.** Bacterial gene mutation (bacteria): negative; Apparent volume of distribution (in vivo): 0.19 to 0.384 L/kg; Elimination half-life (in vivo): 30 to 60 min; Unchanged drug in human urine (within 6 to 8 hours after dosing): less than 5%; Micronucleus (rat [2]): negative; Inhibition of CYP2C9 (CYP2C9): does not significantly inhibit; Inhibition of CYP2C19 (CYP2C19): does not significantly inhibit; Plasma exposure (AUC) relative to humans at the MRHD (rats [3]; highest dose tested): 2 times; Tumors (rats [3]; up to 1,000 mg/kg/day for 83 (males) or 104 (females) weeks): no increase in tumors; Systemic exposure to GHB on co-administration [4]: comparable systemic exposure to GHB; Effects on fertility (male and female rats): no adverse effects on fertility; Bound to plasma proteins (plasma proteins): less than 1%; Gender differences in pharmacokinetics of GHB [5]: no gender differences; Pre- and post-natal effects (rats [6]): increased stillbirths and decreased offspring postnatal viability and body weight gain; Mortality in juvenile rats (rats [7]): mortality was observed at the two highest doses tested; Inhibition of CYP2E1 (CYP2E1): does not significantly inhibit; Developmental toxicity (pregnant rats): no clear evidence of developmental toxicity; Chromosomal aberration (mammalian cells): negative; Developmental toxicity (pregnant rabbits): no clear evidence of developmental toxicity; Inhibition of CYP1A2 (CYP1A2): does not significantly inhibit; Inhibition of CYP2D6 (CYP2D6): does not significantly inhibit; Inhibition of CYP3A (CYP3A): does not significantly inhibit; AUC in cirrhotic patients vs normal hepatic function ([8]; 25 mg/kg oral): double; Apparent oral clearance ([8]; Child's Class A): 4.5 mL/min/kg; Apparent oral clearance ([8]; Child's Class C): 4.1 mL/min/kg; Apparent oral clearance ([8]; healthy adults): 9.1 mL/min/kg; Systemic exposure to GHB on co-administration [9]: no significant differences in systemic exposure to GHB
